Reference: US20250042889A1, “3CLPRO PROTEASE INHIBITOR” (SHANGHAI QILU PHARMACEUTICAL RESEARCH AND DEVELOPMENT …, priority 2021, published 2025)

molecular target: SARS-COV-2 3CLpro/Mpro protease (Severe acute respiratory syndrome coronavirus 2 (2019-nCoV) (SARS-CoV-2), UniProt P0DTD1); test: Inhibitory effect on SARS-COV-2 3CLpro/Mpro protease by fluorescence resonance energy transfer; assay type: biochemical; details: activity intervals A-D, read-out: IC50 (nM), Inhibition on SARS-CoV-2 3CLpro/Mpro protease

SMILES | IC50 [nM]
O=C(c1cc(Br)cc([N+](=O)[O-])c1N[C@@H]1CCCN(C(=O)c2cncc3cc(F)ccc23)C1)N1CCCCC1 [Example 103] | 10 to 50
CNc1cncc(C(=O)N[C@H]2CCOC[C@H]2Nc2c(C(=O)N3C[C@@H](C)O[C@H](C)C3)cc(Br)cc2[N+](=O)[O-])c1 [Example 259] | 10 to 50
Cc1cncc(C(=O)N2CCC[C@@H](Nc3c(C(=O)N4CCCCC4)cc(Br)cc3[N+](=O)[O-])C2)c1 [Example 43] | 10 to 50
O=C(c1cncc(Br)c1)N1CC[C@@H](Nc2c(C(=O)N3CCCCC3)cc(Br)cc2C(F)(F)F)C1 [Example 68] | 50 to 100
CNc1cncc(C(=O)N2C[C@H](Nc3c(C(=O)N4C[C@@H](C)O[C@@H](C)C4)cc(Br)cc3[N+](=O)[O-])CC[C@H]2C#N)c1 [Example 398] | 10 to 50
CNc1cncc(C(=O)N2CCC[C@@H](Nc3c(C(=O)N4Cc5cnn(C)c5C4)cc(Br)cc3[N+](=O)[O-])C2)c1 [Example 304] | 50 to 100
O=C(N[C@H]1CCCC[C@H]1Nc1c(C(=O)N2CCOCC2)cc(Br)cc1[N+](=O)[O-])c1cc(=O)[nH]c2ccccc12 [Example 107] | 10 to 50
CNc1cncc(C(=O)N2C[C@H](Nc3c(C(=O)N4C[C@@H](C)O[C@@H](C)C4)cc(Br)cc3[N+](=O)[O-])C[C@H]2C(=O)NC2CNC(=O)C2)c1 (some centres unmarked) [Example 393] | 50 to 100
CNc1cncc(C(=O)N2C[C@H](Nc3c(C(=O)N4C[C@@H](C)O[C@@H](C)C4)cc(Br)cc3[N+](=O)[O-])[C@@H](OCc3ccc(OC)nc3)C2)c1 [Example 456, (5-Bromo-2-(((3S,4S)-4-((6-methoxypyridin-3-yl)methoxy)-1-(5-methylamino)nicotinoyl)pyrrolidin-3-amino)-3-nitrophenyl)((2S,6R)-2,6-dimethylmorpholinyl)methanone] | 10 to 50
Nc1cncc(C(=O)N2CCC[C@@H](Nc3c(C(=O)N4CCOCC4)cc(Br)cc3[N+](=O)[O-])C2)c1 [Example 114] | 10 to 50
O=C(NN1CCOCC1)c1cc(Br)cc([N+](=O)[O-])c1N[C@@H]1CCCN(C(=O)c2cncc(I)c2)C1 [Example 137] | 10 to 50
O=C(c1cc(Br)[nH]c(=O)c1)N1CCC[C@@H](Nc2c(C(=O)N3CCC(F)(F)CC3)cc(Br)cc2[N+](=O)[O-])C1 [Example 150] | 50 to 100
CNc1cncc(C(=O)N2CCC[C@@H](Nc3c(C(=O)N4CCN(C5CCOCC5)CC4)cc(Br)cc3[N+](=O)[O-])C2)c1 [Example 235] | 10 to 50
COCCN1CCN(C(=O)c2cc(Br)cc([N+](=O)[O-])c2N[C@@H]2CCCC[C@@H]2NC(=O)c2cncc3cc(Cl)ccc23)CC1 [Example 111] | < 10
CNc1cncc(C(=O)N[C@H]2CCCC[C@H]2Nc2c(C(=O)N3C[C@@H](C)O[C@@H](C)C3)cc(Br)cc2[N+](=O)[O-])c1 [Example 198] | 10 to 50
[2H]C([2H])([2H])Nc1cncc(C(=O)N2CCC[C@@H](Nc3c(C(=O)N4C[C@@H](C)O[C@@H](C)C4)cc(Br)cc3[N+](=O)[O-])C2)c1 [Example 347] | 10 to 50
CNc1cncc(C(=O)N2CCC[C@@H](Nc3c(C(=O)N4CCCOCC4)cc(Br)cc3[N+](=O)[O-])C2)c1 [Example 305] | 10 to 50
CNc1cncc(C(=O)N2C[C@H](Nc3c(C(=O)N4CCCCC4)cc(Br)cc3[N+](=O)[O-])C(F)(F)C2)c1 [Example 168] | 10 to 50
CC1CC(C(=O)N2CCC[C@@H](Nc3c(C(=O)N4C[C@@H](C)O[C@@H](C)C4)cc(Br)cc3[N+](=O)[O-])C2)CC(=O)N1 (some centres unmarked) [Example 179] | 50 to 100
CNc1cncc(C(=O)N2C[C@H](Nc3c(C(=O)N4C[C@@H](C)O[C@@H](C)C4)cc(Br)cc3[N+](=O)[O-])C[C@H]2C(=O)NC2CC2)c1 [Example 388] | 50 to 100
O=C(c1cc(Br)cc([N+](=O)[O-])c1N[C@@H]1CCCN(C(=O)c2cc(=O)[nH]c3ccccc23)C1)N1CCOCC1 [Example 119] | 10 to 50

SMILES | IC50 [nM]
CNc1cncc(C(=O)N[C@H]2CCOC[C@H]2Nc2c(C(=O)N3CCN(CCOC)CC3)cc(Br)cc2[N+](=O)[O-])c1 [Example 221] | 10 to 50
C=C1CNCC(C(=O)N2CCC[C@@H](Nc3c(C(=O)N4CCCCC4)cc(Br)cc3[N+](=O)[O-])C2)C1 (some centres unmarked) [Example 324] | 100 to 200
N[C@@H]1C[C@H](O)CN(C(=O)c2cc(Br)cc([N+](=O)[O-])c2N[C@@H]2CCCC[C@@H]2NC(=O)c2cncc3ccccc23)C1 [Example 141] | 10 to 50
CNc1cncc(C(=O)N2CCC[C@@H](Nc3c(C(=O)N4CCn5cccc5C4)cc(Br)cc3[N+](=O)[O-])C2)c1 [Example 323] | 10 to 50
O=C(c1cncc(Br)c1)N1CC[C@@H](Nc2c(C(=O)N3CCCCC3)cc(Br)cc2[N+](=O)[O-])C1 [Example 64] | 10 to 50
CNc1cncc(C(=O)N2CC(Nc3c(C(=O)N4CCCCC4)cc(Br)cc3[N+](=O)[O-])C(C)(C)C2)c1 (centres unmarked) [Example 186] | 10 to 50
C[C@H]1CN(C(=O)c2cc(Br)cc([N+](=O)[O-])c2N[C@@H]2CCCN(C(=O)[C@H]3CC(=O)Nc4ccccc43)C2)CCO1 [Example 283] | 10 to 50
CNc1cncc(C(=O)N2CCC[C@@H](Nc3c(C(=O)N4C[C@@H](C)C[C@H](C)C4)cc(Br)cc3[N+](=O)[O-])C2)c1 [Example 257] | 10 to 50
N#Cc1cncc(C(=O)N2CCC[C@@H](Nc3c(C(=O)N4CCCCC4)cc(Br)cc3[N+](=O)[O-])C2)c1 [Example 41] | 10 to 50
O=C(c1cc(Br)cc([N+](=O)[O-])c1N[C@@H]1CCCN(C(=O)c2cnnc3ccccc23)C1)N1CCCCC1 [Example 56] | 10 to 50
O=C(c1cc(Br)cc([N+](=O)[O-])c1N[C@@H]1CCCN(C(=O)c2cncc3ccccc23)C1)N1CCNCC1 [Example 10] | 10 to 50
CNc1cncc(C(=O)N2C[C@H](Nc3c(C(=O)N4C[C@@H](C)O[C@@H](C)C4)cc(Br)cc3[N+](=O)[O-])C[C@H]2C(=O)NCc2ccnc(C(F)(F)F)c2)c1 [Example 419] | 50 to 100
O=C(c1cncc(I)c1)N1CCC[C@@H](Nc2c(C(=O)N3CCC(F)(F)CC3)cc(Br)cc2[N+](=O)[O-])C1 [Example 75] | < 10
COCCN1CCN(C(=O)c2cc(Br)cc([N+](=O)[O-])c2N[C@@H]2CCCN(C(=O)c3cncc(I)c3)C2)CC1 [Example 120] | < 10
O=C(c1cc(Br)cc([N+](=O)[O-])c1N[C@@H]1CCCN(C(=O)c2cncc3ccccc23)C1)N1CCCCC1 [Example 13, (R)-(5-bromo-2-((1-(isoquinolin-4-carbonyl)piperidin-3-yl)amino)-3-nitrophenyl)(piperidin-1-yl)methanone] | < 10
COCCN1CCN(C(=O)c2cc(Br)cc([N+](=O)[O-])c2N[C@@H]2CCCN(C(=O)[C@H]3CNCC(F)(F)C3)C2)CC1 [Example 361] | 10 to 50
O=C(N[C@H]1COCC[C@H]1Nc1c(C(=O)N2CCCCC2)cc(Br)cc1[N+](=O)[O-])c1cncc2cc(Cl)ccc12 [Example 193] | 10 to 50
CNc1cncc(C(=O)N2C[C@H](Nc3c(C(=O)N4C[C@@H](C)O[C@@H](C)C4)cc(Br)cc3[N+](=O)[O-])[C@@H](OCc3ccc(F)cn3)C2)c1 [Example 459] | 10 to 50
CNc1cncc(C(=O)N2CCC[C@@H](Nc3c(C(=O)N4CC(N)CC(F)(F)C4)cc(Br)cc3[N+](=O)[O-])C2)c1 (some centres unmarked) [Example 263] | 10 to 50
CNc1cncc(C(=O)N[C@H]2CCOC[C@H]2Nc2c(C(=O)N3CCCCC3)cc(Br)cc2[N+](=O)[O-])c1 [Example 201] | 10 to 50
